Earlier results, collected in patent publication US20060189533A1, “Stable pharmaceutical dosage forms of teriparatide” (Nastech Pharmaceutical Company Inc., priority 2004, published 2006).
Read-outs that look alike come from different tables or passages of the source. Where no end group is shown, it is not given here.

Columns and labels:
[1] = up to 500 μg per day for 7 days; up to 1,000 μg per day for 3 months
ovariectomized rat = ovariectomized rat model
[2] = anesthetized rats

Q: With `CC[C@H](C)[C@H](NC(=O)[C@H](CCC(=O)O)NC(=O)[C@H](CO)NC(=O)[C@@H](NC(=O)[C@@H](N)CO)C(C)C)C(=O)N[C@@H](CCC(N)=O)C(=O)N[C@@H](CC(C)C)C(=O)N[C@@H](CCSC)C(=O)N[C@@H](Cc1cnc[nH]1)C(=O)N[C@@H](CC(N)=O)C(=O)N[C@@H](CC(C)C)C(=O)NCC(=O)N[C@@H](CCCCN)C(=O)N[C@@H](Cc1cnc[nH]1)C(=O)N[C@@H](CC(C)C)C(=O)N[C@@H](CC(N)=O)C(=O)N[C@@H](CO)C(=O)N[C@@H](CCSC)C(=O)N[C@@H](CCC(=O)O)C(=O)N[C@@H](CCCN=C(N)N)C(=O)N[C@H](C(=O)N[C@@H](CCC(=O)O)C(=O)N[C@@H](Cc1c[nH]c2ccccc12)C(=O)N[C@@H](CC(C)C)C(=O)N[C@@H](CCCN=C(N)N)C(=O)N[C@@H](CCCCN)C(=O)N[C@@H](CCCCN)C(=O)N[C@@H](CC(C)C)C(=O)N[C@@H](CCC(N)=O)C(=O)N[C@@H](CC(=O)O)C(=O)N[C@H](C(=O)N[C@@H](Cc1cnc[nH]1)C(=O)N[C@@H](CC(N)=O)C(=O)N[C@@H](Cc1ccccc1)C(=O)O)C(C)C)C(C)C` [Teriparatide] as the molecule, how does the “safety of the intranasal route” value [1] read?
A: no safety concerns were noted

Q: With “hPTH1-31NH2: linear PTH analogue with only AC-stimulating activity, SEQ ID NO: 3 (SVSEIQLMHNLGKHLNSMERVEWLRKKLQDV-NH2; listed as Homo sapiens)” as the molecule, how does the “activity in the restoration of bone loss” value (ovariectomized rat) read?
A: fully active

Q: With “human growth hormone: protein whose nasal bioavailability is reported to be modestly increased by N-acetyl-L-cysteine” as the molecule, how does the nasal bioavailability ([2]; before increase by N-acetyl-L-cysteine) read?
A: 7.5%

Q: And the nasal bioavailability ([2]; with N-acetyl-L-cysteine)?
A: 12.2%
